The record followed here is US20070185119A1, “Therapeutic agents II” (ASTRAZENECA AB, priority 2004, published 2007).

The test addresses T1, human Melanin concentrating hormone receptor 1 (MCH1r) (Homo sapiens, UniProt Q99705).
T1 construct: expressed in transfected cells; host or cells: CHO-K1 cells (membranes)
The experiment in a line: MCH1 receptor radioligand binding (125I-MCH, CHO-K1 cell membranes). The settings on record: human MCHr binding assay. As for the experimental part:
MCH1 Receptor Radioligand Binding.
Assays were performed on membranes prepared from CHO-K1 cells expressing the human Melanin concentrating hormone receptor 1 (MCH1r). Assays were performed in a 96-well plate format in a final reaction volume of 200 μl per well. Each well contained 6 μg of membrane proteins diluted in binding buffer (50 mM Tris, 3 mM MgCl2, 0.05% bovine serum albumin (BSA) and the radioligand ^125I-MCH (IM344 Amersham) was added to give 10 000 cpm (counts per minute) per well. Each well contained 2 μl of the appropriate concentration of competitive antagonist prepared in DMSO and left to stand at 30° C. for 60 minutes. Non-specific binding was determined as that remaining following incubation with 1 μM MCH (Melanin concentrating hormone, H-1482 Bachem). The reaction was terminated by transfer of the reaction to GF/A filters using a Micro96 Harvester (Skatron Instruments, Norway). Filters were washed with assay buffer. Radioligand retained on the filters was quantified using a1450 Microbeta TRILUX (Wallac, Finland).
Non-specific binding was subtracted from all values determined. Maximum binding was that determined in the absence of any competitor following subtraction of the value determined for non-specific binding. […]

Structures are written as SMILES.

T1 sequence (Q99705 whole entry): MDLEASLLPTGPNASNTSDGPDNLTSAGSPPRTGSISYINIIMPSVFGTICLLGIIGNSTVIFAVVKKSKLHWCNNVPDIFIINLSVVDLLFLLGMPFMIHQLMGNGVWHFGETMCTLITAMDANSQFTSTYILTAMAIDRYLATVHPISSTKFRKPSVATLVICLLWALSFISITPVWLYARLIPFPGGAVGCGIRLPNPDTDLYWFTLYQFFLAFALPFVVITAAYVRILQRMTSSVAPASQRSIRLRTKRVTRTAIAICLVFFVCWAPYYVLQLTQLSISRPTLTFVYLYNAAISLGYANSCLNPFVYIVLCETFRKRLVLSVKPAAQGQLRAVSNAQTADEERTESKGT

Molecule `CN(C)c1nc(N[C@H]2CCC[C@H](NCc3cn(C)c4ccccc34)C2)nc2ccccc12` (relative stereo) [Example 4, N^4,N^4-dimethyl-N^2-(-3-{[(1-methyl-1H-indol-3-yl)methyl]amino}-trans-cyclohexyl)quinazoline-2,4-diamine] registered a half-inhibitory concentration (IC50) of 15 nM.

What is called IC50 is the concentration that gives 50% inhibition. Higher therefore signals weaker potency in that assay.
